Reference: EP4644383A1 (Jiangsu Yahong Meditech Co., Ltd., priority 2022, dated 2024)

Legend:
[1] = system: Ba/F3-BCR-FGFR1 cells; experiment: Inhibition of proliferation activity of Ba/F3-BCR-FGFR1 cells (CellTiter-Glo); type: cell-based; settings: Ba/F3-BCR-FGFR1 cells, 72 hours, CTG; read-out: IC50 (nM) Ba/F3-BCR-FGFR1
Experimental: (§1) The present experiment used CellTiter-Glo® Luminescent Cell Viability Assay (Promega: G7573) kit, which was a homogeneous cell viability detection method and determined the cell viability of cultured cells by quantifying ATP. • ① Ba/F3-BCR-FGFR1 or Ba/F3-FGFR3-BAIAP2L1 cells were cultured in 1640 complete medium (Gibco: 11879020) (10% FBS (Gibco: 10091-148)+1% Pen Strep (Gibco: 15140122)) under the condition of 37°C and 5% CO2. • (2) The cells in logarithmic growth phase were harvested and counted using a […]. The trypan blue exclusion method was used to detect cell viability to ensure the cell viability was above 90%. • ③ The cell density was adjusted using 1640 complete medium, and then, the cells were seeded into a 96-well cell culture plate at 90 µL/well with a total of 2000 cells. • ④ A 10-fold drug solution was prepared starting from a maximum drug concentration of 10 µM and 4-fold serially diluted into10 concentrations. Then, 10 µL of each of the serially diluted compounds was transferred to the corresponding experimental wells of a 96-well cell plate, with two replicates for each drug concentration. • ⑤ The 96-well plate with the cells that had been treated with the drugs was placed under the condition of 37°C and 5% CO2 to be further cultured for 72 hours, and then analyzed by CTG. • ⑥ The CTG reagent was melted and the cell plate was equilibrated to room temperature for 30 minutes. • ⑦ 50 µL of the CTG solution was added to each well. • ⑧ The cell plate was shaken on an orbital shaker for 5 minutes to lyse the cells. • ⑨ The cell plate was placed at room temperature for 20 minutes to stabilize the luminescence signal. The luminescence values were read to collect the data. • ⑩ The data were analyzed using XLFit excel plugin version 5.5.0.5, and fitted with non-linear S-curve regression to obtain the dose-response curves and thus calculate the IC50 values. Y = Bottom + (Top-Bottom)/((1+(IC50/X))^(∧) HillSlope [formula]
(§2) "Top" refers to the maximum response, "Bottom" refers to the minimum response, and "HillSlope" refers to the slope of the curve.
(§3) "Max" represents the average value of the cell control+DMSO, and "Min" represents the average value of the medium control+DMSO.

[2] = molecular target: T1, FGFR1 (Homo sapiens, UniProt P11362); experiment: FGFR1 kinase activity inhibition assay (LanthaScreen TR-FRET); type: biochemical; settings: FGFR1 kinase, TR-FRET; read-out: IC50 (nM) FGFR1
T1 construct: cytoplasmic domain [398-822 (terminal) amino acids]; purchased Carna 08-133
T1 sequence (P11362 398-822): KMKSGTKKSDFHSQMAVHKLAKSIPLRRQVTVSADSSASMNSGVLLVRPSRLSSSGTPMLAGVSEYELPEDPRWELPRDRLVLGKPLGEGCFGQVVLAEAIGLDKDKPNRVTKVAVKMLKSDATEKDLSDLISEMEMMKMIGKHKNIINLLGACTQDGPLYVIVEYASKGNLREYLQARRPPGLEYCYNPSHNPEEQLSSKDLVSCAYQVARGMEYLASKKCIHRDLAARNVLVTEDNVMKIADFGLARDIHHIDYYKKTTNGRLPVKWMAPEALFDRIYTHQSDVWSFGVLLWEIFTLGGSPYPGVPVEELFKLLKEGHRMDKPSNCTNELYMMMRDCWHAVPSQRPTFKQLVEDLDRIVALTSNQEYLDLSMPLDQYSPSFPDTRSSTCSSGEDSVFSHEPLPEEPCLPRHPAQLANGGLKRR
How it was run: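 Emission ratio 520 nm/495 nm by TR-FRET after stopping reaction with 10 mM EDTA and 60 min incubation at 22°C. Inhibition normalized between no-enzyme (min) and DMSO (max) controls, then fitted to a four-parameter curve (Top, Bottom, HillSlope).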

[3] = system: Ba/F3-FGFR3-BAIAP2L1 cells; experiment: Inhibition of proliferation activity of Ba/F3-FGFR3-BAIAP2L1 cells (CellTiter-Glo); type: cell-based; settings: for IC50: Ba/F3-FGFR3-BAIAP2L1 cells, 72 hours, CTG, read-out: IC50 (nM) Ba/F3-FGFR3-BAIAP2L1; for Selectivity (X) FGFR1/FGFR3: ratio of IC50 Ba/F3-BCR-FGFR1 to IC50 Ba/F3-FGFR3-BAIAP2L1
Experimental: as §1, with “Then, 10 µL of each of the serially diluted compounds was transferred to the corresponding experimental wells of a 96-well cell plate, with two replicates for each drug concentration. • ⑤ The 96-well plate with the cells that had been treated with the drugs was placed under the condition of 37°C and 5% CO2 to be further cultured for 72 hours, and then analyzed by CTG. • ⑥ The CTG reagent was melted and the cell plate was equilibrated to room temperature for 30 minutes. • ⑦ 50 µL of the CTG solution was added to each well. • ⑧ The cell plate was shaken on an orbital shaker for 5 minutes to lyse the cells. • ⑨ The cell plate was placed at room temperature for 20 minutes to stabilize the luminescence signal.” left out
as §2, §3

[4] = molecular target: T2, FGFR3 (Homo sapiens, UniProt P22607); experiment: FGFR3 kinase activity inhibition assay (LanthaScreen TR-FRET); type: biochemical; settings: for IC50: FGFR3 kinase, TR-FRET, read-out: IC50 (nM) FGFR3; for Selectivity (X) FGFR1/FGFR3: ratio of IC50 FGFR1/FGFR3, selectivity towards FGFR3
T2 construct: FGFR3's cytoplasmic domain [436-806 (terminal) amino acids]; purchased Carna 08-135
T2 sequence (P22607 436-806): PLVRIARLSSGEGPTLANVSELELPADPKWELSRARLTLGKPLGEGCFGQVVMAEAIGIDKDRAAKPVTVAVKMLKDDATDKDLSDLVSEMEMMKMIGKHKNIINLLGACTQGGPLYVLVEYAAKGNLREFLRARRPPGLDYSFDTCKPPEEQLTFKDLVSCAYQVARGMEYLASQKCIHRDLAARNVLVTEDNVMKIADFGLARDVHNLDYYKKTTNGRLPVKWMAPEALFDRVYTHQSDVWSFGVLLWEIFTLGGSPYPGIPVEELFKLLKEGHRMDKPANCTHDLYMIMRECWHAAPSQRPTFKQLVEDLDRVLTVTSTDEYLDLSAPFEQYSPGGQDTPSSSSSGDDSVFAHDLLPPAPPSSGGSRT
How it was run: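 Read-out is TR-FRET, with the 520 nm/495 nm emission ratio normalised to DMSO (max) and enzyme-free (min) controls. Enzyme was the FGFR3 cytoplasmic domain, residues 436-806. EDTA (10 mM) stopped the reaction, followed by 60 min at 22 °C before reading.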

Compound	IC50 [1] [nM]	IC50 [2] [nM]	IC50 [3] [nM]	Selectivity (X) FGFR1/FGFR3 [3] [X]	IC50 [4] [nM]	Selectivity (X) FGFR1/FGFR3 [4]
CC(Oc1ccc2[nH]nc(-c3cnn(C)c3)c2c1)c1cccc2ncnn12 (centres unmarked) [Example 96, 5-(1-((3-(1-methyl-1H-pyrazol-4-yl)-1H-indazol-5-yl)oxy)ethyl)-[1,2,4]triazolo[1,5-a]pyridine]	430	10 to 100	11.8	37	1 to 10	A (A represents 1 ≤ multiple X<20)
5-(1-((7-fluoro-3-(1-methyl-1H-pyrazol-4-yl)-1H-indazol-5-yl)oxy)ethyl)-6-methylquinoline [Example 100]	1150	10 to 100	26.8	–	1 to 10	A (A represents 1 ≤ multiple X<20)
CC(Oc1ccc2[nH]nc(-c3cnn(C)c3)c2c1)c1cccc2ncc(F)cc12 (centres unmarked) [Example 98, 3-fluoro-5-(1-((3-(1-methyl-1H-pyrazol-4-yl)-1H-indazol-5-yl)oxy)ethyl)qu inoline]	2140	> 100	47.6	45	10 to 100	A (A represents 1 ≤ multiple X<20)
CC(Oc1ccc2[nH]nc(-c3cnn(C)c3)c2c1)c1cccc2ncncc12 (centres unmarked) [Example 99, 5-(1-((3-(1-methyl-1H-pyrazol-4-yl)-1H-indazol-5-yl)oxy)ethyl)qu inazoline]	1760	> 100	41.8	42	10 to 100	A (A represents 1 ≤ multiple X<20)
